According to patent US10723741B1, “DNA polymerase IIIC inhibitors and use thereof” (Acurx Pharmaceuticals, LLC, priority 2018, dated 2020):
≈ marks a conversion by molar mass, not a printed value.

Assays:
Format in all cases: cell-based
[1] = test system: Staphylococcus aureus NRS384 (MRSA); test: Broth microdilution MIC, S. aureus NRS384 (MRSA); parameters: MIC NRS 384 (MRSA): unit not given here; conditions: broth microdilution, 37° C., 20 hours; for MIC: Staphylococcus aureus, read-out: MIC NRS 384 (MRSA)
Outline: (§1)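 Broth microdilution in strain-specific test medium with ~5.0×10^5 cfu/ml inoculum, 1% DMSO and two-fold compound dilutions from 64 to 0.0625 μg/ml. Plates were held 20 hours at 37° C in ambient air. S. pneumoniae colonies were grown beforehand on blood agar in 5% CO2.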

[2] = test system: Staphylococcus aureus ATCC 29213 (MSSA); test: Broth microdilution MIC, S. aureus ATCC 29213 (MSSA); conditions: broth microdilution, 37° C., 20 hours, read-out: MIC S. aureus ATCC 29213 (MSSA)
Outline: as §1

[3] = test system: Enterococcus faecalis ATCC 29212; test: Broth microdilution MIC, E. faecalis ATCC 29212; conditions: ATCC29212, broth microdilution, 37° C., 20 hours, read-out: MIC E. faecalis ATCC 29212
Outline: as §1

[4] = test system: Enterococcus faecium ATCC 700221 (VRE); test: Broth microdilution MIC, E. faecium ATCC 700221 (VRE); parameters: MIC E. faecium ATCC 700221 (VRE): unit: ug/mL; conditions: broth microdilution, 37° C., 20 hours; for MIC: Enterococcus faecium, read-out: MIC E. faecium ATCC 700221 (VRE)
Outline: as §1

[5] = test system: Streptococcus pneumoniae ATCC 49619; test: Broth microdilution MIC, S. pneumoniae ATCC 49619; conditions: ATCC49619, broth microdilution, 37° C., 20 hours, read-out: MIC S. pneumoniae ATCC 49619
Outline: as §1

[6] = test system: Bacillus subtilis ATCC 6633; test: Broth microdilution MIC, B. subtilis ATCC 6633; conditions: ATCC6633, broth microdilution, 37° C., 20 hours, read-out: MIC B. subtilis ATCC 6633
Outline: as §1

[7] = test system: Escherichia coli ATCC 25922; test: Broth microdilution MIC, E. coli ATCC 25922 (MHIIB w & w/o 4 mM EDTA); conditions: broth microdilution, 37° C., 20 hours; for MIC: Escherichia coli, ATCC25922, without EDTA, read-out: MIC E. coli ATCC 25922; for MIC E. coli ATCC 25922 + 4 mM EDTA: with 4 mM EDTA
Outline: as §1

Cl.O=c1[nH]c(NCc2ccc(Cl)c(Cl)c2)nc2cnn(CCOCc3nn[nH]n3)c12 [Compound 282, 1-(2-((2H-tetrazol-5-yl)methoxy)ethyl)-5-((3,4-dichlorobenzyl)amino)-1H-pyrazolo[4,3-d]pyrimidin-7(6H)-one hydrochloride]
MIC [1]: > 64 µg/mL | MIC [2]: > 64 µg/mL | MIC [3]: > 64 µg/mL | MIC [4]: > 64 µg/mL | MIC [5]: > 64 µg/mL | MIC [6]: > 64 µg/mL | MIC [7]: > 64 µg/mL | MIC E. coli ATCC 25922 + 4 mM EDTA [7]: >64 µg/mL

O=C(O)COCCn1ncc2nc(NCc3ccc(Cl)c(Cl)c3)[nH]c(=O)c21 [Compound 283, 2-[2-[5-[(3,4-dichlorophenyl)methylamino]-7-oxo-6H-pyrazolo[4,3-d]pyrimidin-1-yl]ethoxy]acetic acid]
MIC [1]: > 64 µg/mL | MIC [2]: > 64 µg/mL | MIC [3]: > 64 µg/mL | MIC [4]: > 64 µg/mL | MIC [5]: > 64 µg/mL | MIC [6]: > 64 µg/mL | MIC [7]: > 64 µg/mL | MIC E. coli ATCC 25922 + 4 mM EDTA [7]: >64 µg/mL

NC(=O)COCCn1ncc2nc(NCc3ccc(Cl)c(Cl)c3)[nH]c(=O)c21 [Compound 284, 2-[2-[5-[(3,4-dichlorophenyl)methylamino]-7-oxo-6H-pyrazolo[4,3-d]pyrimidin-1-yl]ethoxy]acetamide]
MIC [1]: 64 µg/mL (≈ 156 µM) | MIC [2]: 16 µg/mL (≈ 38.9 µM) | MIC [3]: 16 µg/mL (≈ 38.9 µM) | MIC [4]: 8 µg/mL (≈ 19.5 µM) | MIC [5]: 8 µg/mL (≈ 19.5 µM) | MIC [6]: 8 µg/mL (≈ 19.5 µM) | MIC [7]: > 64 µg/mL | MIC E. coli ATCC 25922 + 4 mM EDTA [7]: >64 µg/mL

N#CCOCCn1ncc2nc(NCc3ccc(Cl)c(Cl)c3)[nH]c(=O)c21 [Compound 285, 2-(2-(5-((3,4-dichlorobenzyl)amino)-7-oxo-6,7-dihydro-1H-pyrazolo[4,3-d]pyrimidin-1-yl)ethoxy)acetonitrile]
MIC NRS 384 (MRSA) [1]: 4/4 | MIC [2]: 4 µg/mL (≈ 10.2 µM) | MIC [3]: 4 µg/mL (≈ 10.2 µM) | MIC E. faecium ATCC 700221 (VRE) [4]: 2/2 | MIC [5]: 4 µg/mL (≈ 10.2 µM) | MIC [6]: 1 µg/mL (≈ 2.54 µM) | MIC [7]: > 64 µg/mL | MIC E. coli ATCC 25922 + 4 mM EDTA [7]: >64 µg/mL

[2H]C([2H])(O)COCCn1ncc2nc(NCc3ccc(Cl)c(Cl)c3)[nH]c(=O)c21 [Compound 286, 5-[(3,4-dichlorophenyl)methylamino]-1-[2-(2,2-dideuterio-2-hydroxyl-ethoxy)ethyl]-6H-pyrazolo[4,3-d]pyrimidin-7-one]
MIC [1]: 8 µg/mL (≈ 20 µM) | MIC [2]: 8 µg/mL (≈ 20 µM) | MIC [3]: 4 µg/mL (≈ 9.99 µM) | MIC [4]: 2 µg/mL (≈ 5 µM) | MIC [5]: 4 µg/mL (≈ 9.99 µM) | MIC [6]: 4 µg/mL (≈ 9.99 µM) | MIC [7]: > 64 µg/mL | MIC E. coli ATCC 25922 + 4 mM EDTA [7]: >64 µg/mL

COC(=O)COCCn1ncc2nc(NCc3ccc(Cl)c(Cl)c3)[nH]c(=O)c21 [Compound 287, methyl 2-(2-(5-((3,4-dichlorobenzyl)amino)-7-oxo-6,7-dihydro-1H-pyrazolo[4,3-d]pyrimidin-1-yl)ethoxy)acetate]
MIC NRS 384 (MRSA) [1]: 4/4 | MIC [2]: 4 µg/mL (≈ 9.38 µM) | MIC [3]: 8 µg/mL (≈ 18.8 µM) | MIC E. faecium ATCC 700221 (VRE) [4]: 4/4 | MIC [5]: 16 µg/mL (≈ 37.5 µM) | MIC [6]: 2 µg/mL (≈ 4.69 µM) | MIC [7]: > 64 µg/mL | MIC E. coli ATCC 25922 + 4 mM EDTA [7]: >64 µg/mL

O=c1[nH]c(NCc2ccc(Cl)c(Cl)c2)nc2cnn(CC(CO)N3CCOCC3)c12 (stereo not shown) [Compound 288, 5-[(3,4-dichlorophenyl)methylamino]-1-(3-hydroxy-2-morpholino-propyl)-6H-pyrazolo[4,3-d]pyrimidin-7-one]
MIC [1]: 32 µg/mL (≈ 70.6 µM) | MIC [2]: 32 µg/mL (≈ 70.6 µM) | MIC [3]: 32 µg/mL (≈ 70.6 µM) | MIC [4]: 16 µg/mL (≈ 35.3 µM) | MIC [5]: 16 µg/mL (≈ 35.3 µM) | MIC [6]: 8 µg/mL (≈ 17.6 µM) | MIC [7]: > 64 µg/mL | MIC E. coli ATCC 25922 + 4 mM EDTA [7]: >64 µg/mL

O=c1[nH]c(NCc2ccc(Cl)c(Cl)c2)nc2cnn(CC(O)CN3CCOCC3)c12 (stereo not shown) [Compound 289, 5-[(3,4-dichlorophenyl)methylamino]-1-(2-hydroxy-3-morpholino-propyl)-6H-pyrazolo[4,3-d]pyrimidin-7-one]
MIC [1]: 32 µg/mL (≈ 70.6 µM) | MIC [2]: 32 µg/mL (≈ 70.6 µM) | MIC [3]: 16 µg/mL (≈ 35.3 µM) | MIC [4]: 8 µg/mL (≈ 17.6 µM) | MIC [5]: 8 µg/mL (≈ 17.6 µM) | MIC [6]: 8 µg/mL (≈ 17.6 µM) | MIC [7]: > 64 µg/mL | MIC E. coli ATCC 25922 + 4 mM EDTA [7]: >64 µg/mL
